The source of these data is patent US8129371B2, “Thienopyrimidine and pyrazolopyrimidine compounds and their use as mTOR kinase and PI3 kinase inhibitors” (Wyeth LLC, priority 2007, dated 2012).

Where two headings read alike, the source gives them in different places.

In one assay the target is T1, Human mTOR (FLAG-TOR) (Homo sapiens, UniProt P42345).
T1 construct: FLAG
The experiment in a line: Human mTOR kinase assay with purified enzyme, DELFIA format. Type of assay: biochemical. In short, it runs like this: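 Purified FLAG-mTOR in HEPES pH 7.4 buffer with 10 mM MnCl2 was preincubated with inhibitor and reacted 2 h at room temperature with His6-S6K substrate, then stopped with EDTA/EGTA. Phospho-T389 S6K detected by DELFIA with Eu-labelled antibody (40 ng/mL) after plate capture; inhibition computed from signal.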

In assay [1] the target is T2, PI3K (Homo sapiens, UniProt P42336).
T2 construct: PI3 Kinase α IC50; other: PI3 Kinase α; other: PI3 Kinase α isoform, fluorescence polarization
T2 sequence (P42336 whole entry, canonical isoform): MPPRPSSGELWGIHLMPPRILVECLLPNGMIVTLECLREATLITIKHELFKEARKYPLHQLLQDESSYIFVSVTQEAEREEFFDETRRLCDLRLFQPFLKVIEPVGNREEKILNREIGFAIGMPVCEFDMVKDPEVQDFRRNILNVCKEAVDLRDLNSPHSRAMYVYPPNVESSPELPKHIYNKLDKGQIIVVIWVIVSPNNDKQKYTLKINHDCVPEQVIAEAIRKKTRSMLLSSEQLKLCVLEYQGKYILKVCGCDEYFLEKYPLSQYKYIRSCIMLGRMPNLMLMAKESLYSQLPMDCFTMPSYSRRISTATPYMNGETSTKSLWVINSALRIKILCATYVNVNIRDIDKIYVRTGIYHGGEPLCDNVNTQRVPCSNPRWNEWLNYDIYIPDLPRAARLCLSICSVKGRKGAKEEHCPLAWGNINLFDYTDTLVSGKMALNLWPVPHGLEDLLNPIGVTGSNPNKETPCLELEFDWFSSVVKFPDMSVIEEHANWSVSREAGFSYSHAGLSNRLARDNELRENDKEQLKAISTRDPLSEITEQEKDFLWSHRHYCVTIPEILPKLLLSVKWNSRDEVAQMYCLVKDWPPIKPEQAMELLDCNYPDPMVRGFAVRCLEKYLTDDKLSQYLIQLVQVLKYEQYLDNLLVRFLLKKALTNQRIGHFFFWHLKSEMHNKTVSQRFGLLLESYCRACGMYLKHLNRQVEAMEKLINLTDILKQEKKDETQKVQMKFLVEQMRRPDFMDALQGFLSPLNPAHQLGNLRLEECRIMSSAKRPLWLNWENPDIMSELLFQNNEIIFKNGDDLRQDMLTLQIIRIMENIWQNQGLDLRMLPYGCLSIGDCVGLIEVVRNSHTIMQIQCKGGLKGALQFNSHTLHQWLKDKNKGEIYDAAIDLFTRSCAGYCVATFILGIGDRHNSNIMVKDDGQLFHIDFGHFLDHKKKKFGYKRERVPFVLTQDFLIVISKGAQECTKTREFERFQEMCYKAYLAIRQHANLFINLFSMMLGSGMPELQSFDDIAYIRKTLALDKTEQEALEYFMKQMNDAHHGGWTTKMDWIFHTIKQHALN
Description: Fluorescence polarization assay for PI3K. Type of assay: biochemical. To be noted: read-out: PI3 Kinase α IC50. An outline of the steps:
(§1)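 PI3K was preincubated with compound (final DMSO 1%), and the reaction was started with PIP2/ATP substrate and run 30–60 min. It was stopped with a detector mix giving 10 nM red probe and 70 nM GST-GRP.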

Assay [2] concerns the target T3, PI3K (Homo sapiens, UniProt P48736).
T3 construct: PI3 Kinase γ IC50; other: PI3 Kinase γ; other: PI3 Kinase γ isoform, fluorescence polarization
Description: Fluorescence polarization assay for PI3K. Type of assay: biochemical. The settings on record: read-out: PI3 Kinase γ IC50. An outline of the steps:
as §1

A further assay relates to prostate line LNCap. The experiment in a line: In vitro cell culture growth assay (MTS), LNCap. It is filed as cell-based. To be noted: Homo sapiens, LNCaP, 72 h, LNCap cells, three days after drug treatment. An outline of the steps:
(§2)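 Following a one-day attachment period, cells received inhibitors for 3 days. MTS metabolism by viable cells was quantified at 490 nm absorbance and converted to percent of same-plate vehicle control growth.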

A further assay deals with breast line MDA468. The experiment in a line: In vitro cell culture growth assay (MTS), MDA468. It is filed as cell-based. To be noted: Homo sapiens, 72 h, MDA468 cells, three days after drug treatment. In short, it runs like this:
as §2

Setting [3] is: purified human mTOR enzyme, DELFIA format.
Setting [4] is: PI3 Kinase α isoform, fluorescence polarization.
[5] abbreviates: PI3 Kinase γ isoform, fluorescence polarization.

T3 sequence (P48736 whole entry, canonical isoform): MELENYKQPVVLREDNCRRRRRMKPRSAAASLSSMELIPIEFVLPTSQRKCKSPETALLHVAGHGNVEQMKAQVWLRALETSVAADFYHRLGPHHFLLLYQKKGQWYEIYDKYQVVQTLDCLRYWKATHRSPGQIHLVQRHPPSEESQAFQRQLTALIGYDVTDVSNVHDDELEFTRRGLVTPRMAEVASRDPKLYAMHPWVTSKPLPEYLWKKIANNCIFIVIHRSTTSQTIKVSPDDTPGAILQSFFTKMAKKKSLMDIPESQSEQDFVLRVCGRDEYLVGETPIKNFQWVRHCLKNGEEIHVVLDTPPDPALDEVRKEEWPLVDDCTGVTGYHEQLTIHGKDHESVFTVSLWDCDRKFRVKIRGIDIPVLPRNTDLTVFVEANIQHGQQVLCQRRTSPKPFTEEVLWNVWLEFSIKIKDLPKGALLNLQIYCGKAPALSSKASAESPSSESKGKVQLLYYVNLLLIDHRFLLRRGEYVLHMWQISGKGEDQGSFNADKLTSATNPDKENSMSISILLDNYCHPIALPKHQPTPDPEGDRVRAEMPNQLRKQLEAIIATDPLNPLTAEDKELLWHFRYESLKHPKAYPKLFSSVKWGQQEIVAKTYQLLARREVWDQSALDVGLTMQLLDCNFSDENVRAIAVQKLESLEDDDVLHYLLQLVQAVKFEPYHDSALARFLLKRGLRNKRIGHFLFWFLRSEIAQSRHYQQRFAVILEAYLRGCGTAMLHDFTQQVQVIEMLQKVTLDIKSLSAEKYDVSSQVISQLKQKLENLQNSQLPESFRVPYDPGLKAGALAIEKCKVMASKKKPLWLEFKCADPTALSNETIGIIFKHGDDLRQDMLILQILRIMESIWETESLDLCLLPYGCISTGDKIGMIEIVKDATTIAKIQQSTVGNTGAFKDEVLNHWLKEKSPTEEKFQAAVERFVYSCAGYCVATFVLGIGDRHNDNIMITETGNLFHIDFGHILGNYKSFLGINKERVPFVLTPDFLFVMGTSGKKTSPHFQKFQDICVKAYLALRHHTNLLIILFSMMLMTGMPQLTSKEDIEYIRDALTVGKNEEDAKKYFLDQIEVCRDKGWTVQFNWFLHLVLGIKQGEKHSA

For the compound `COC(=O)N1CCC(n2ncc3c(N4CC5CCC(C4)O5)nc(-c4ccc(NC(=O)OCCN5CCCC5)cc4)nc32)CC1` [Example 116, methyl 4-[4-(8-oxa-3-azabicyclo[3.2.1]oct-3-yl)-6-(4-{[(2-pyrrolidin-1-ylethoxy)carbonyl]amino}phenyl)-1H-pyrazolo[3,4-d]pyrimidin-1-yl]piperidine-1-carboxylate], the IC50 against Human mTOR (FLAG-TOR) came out at 335 nM; on PI3K [1] (PI3 Kinase α), 2660 nM; at PI3K [2] (PI3 Kinase γ), 6740 nM; with prostate line LNCap, 1700 nM; in the assay with breast line MDA468, 4000 nM.
The matching figures for `CN(C)CCn1ncc2c(N3CC4CCC(C3)O4)nc(-c3ccc(NC(=O)Nc4ccc(CO)cc4)cc3)nc21` [Example 163, 1-(4-{1-[2-(dimethylamino)ethyl]-4-(8-oxa-3-azabicyclo[3.2.1]oct-3-yl)-1H-pyrazolo[3,4-d]pyrimidin-6-yl}phenyl)-3-[4-(hydroxymethyl)phenyl]urea]: 0.88 nM, 43 nM, 1290 nM, 28 nM and 90 nM.
The matching figures for `CCNC(=O)Nc1ccc(-c2nc(N3CC4CCC(C3)O4)c3cnn(C4CCN(C(=O)OC(C)C)CC4)c3n2)cc1` [Example 67, isopropyl 4-[6-{4-[(ethylcarbamoyl)amino]phenyl}-4-(8-oxa-3-azabicyclo[3.2.1]oct-3-yl)-1H-pyrazolo[3,4-d]pyrimidin-1-yl]piperidine-1-carboxylate]: 0.23 nM, 2460 nM, 9500 nM, 17 nM and 150 nM.
The matching figures for `O=C(Nc1ccc(-c2nc(N3CC4CCC(C3)O4)c3cnn(C4CCN(Cc5cccnc5)CC4)c3n2)cc1)Nc1cccnc1` [Example 18, 1-(4-{4-(8-oxa-3-azabicyclo[3.2.1]oct-3-yl)-1-[1-(pyridin-3-ylmethyl)piperidin-4-yl]-1H-pyrazolo[3,4-d]pyrimidin-6-yl}phenyl)-3-pyridin-3-ylurea]: 0.25 nM, 326 nM, 3480 nM, under 0.8 nM and under 0.8 nM.
On to `CCNC(=O)Nc1ccc(-c2nc(N3CC4CCC(C3)O4)c3cnn(CCO)c3n2)cc1` [Example 194, 1-ethyl-3-{4-[1-(2-hydroxyethyl)-4-(8-oxa-3-azabicyclo[3.2.1]oct-3-yl)-1H-pyrazolo[3,4-d]pyrimidin-6-yl]phenyl}urea], for which the IC50 against Human mTOR (FLAG-TOR) was 2.7 nM; on PI3K [1] (PI3 Kinase α), 1500 nM; on PI3K [2] (PI3 Kinase γ), over 10000 nM; in the assay on prostate line LNCap, 280 nM; with breast line MDA468 it was 800 nM.
For `CCn1ncc2c(N3CC4CCC(C3)O4)nc(-c3ccc(NC(=O)Nc4ccc(CCO)cc4)cc3)nc21` [Example 183, 1-{4-[1-ethyl-4-(8-oxa-3-azabicyclo[3.2.1]oct-3-yl)-1H-pyrazolo[3,4-d]pyrimidin-6-yl]phenyl}-3-[4-(2-hydroxyethyl)phenyl]urea], in that order: 0.12 nM, 68 nM, 1500 nM, under 1 nM and under 1 nM.
With `CS(=O)(=O)N1CCN(Cc2cc3nc(-c4ccc(NC(=O)Nc5ccncc5)cc4)nc(N4CC5CCC(C4)O5)c3s2)CC1` [Example 434, 1-{4-[6-{[4-(methylsulfonyl)piperazin-1-yl]methyl}-4-(8-oxa-3-azabicyclo[3.2.1]oct-3-yl)thieno[3,2-d]pyrimidin-2-yl]phenyl}-3-pyridin-4-ylurea], the IC50 turned out to be 0.445 nM on Human mTOR (FLAG-TOR) (setting [3]); 8 nM at PI3K [1] (setting [4]); 330 nM at PI3K [2] (setting [5]); 120 nM in the assay with prostate line LNCap; 180 nM in the assay on breast line MDA468.
Regarding `O=C(Nc1ccncc1)Nc1ccc(-c2nc(N3CC4CCC(C3)O4)c3cnn(C4CCN(Cc5cccnc5)CC4)c3n2)cc1` [Example 19, 1-(4-{4-(8-oxa-3-azabicyclo[3.2.1]oct-3-yl)-1-[1-(pyridin-3-ylmethyl)piperidin-4-yl]-1H-pyrazolo[3,4-d]pyrimidin-6-yl}phenyl)-3-pyridin-4-ylurea], the IC50 is 0.14 nM at Human mTOR (FLAG-TOR); 223 nM on PI3K [1] (PI3 Kinase α); 391 nM at PI3K [2] (PI3 Kinase γ); under 0.8 nM in the assay with prostate line LNCap; under 0.8 nM in the assay with breast line MDA468.
Consider `CC(C)C(=O)N1CCC(n2ncc3c(N4CC5CCC(C4)O5)nc(-c4ccc(NC(=O)NCCO)cc4)nc32)CC1` [Example 84, 1-(2-hydroxyethyl)-3-{4-[1-(1-isobutyrylpiperidin-4-yl)-4-(8-oxa-3-azabicyclo[3.2.1]oct-3-yl)-1H-pyrazolo[3,4-d]pyrimidin-6-yl]phenyl}urea], for which the IC50 at Human mTOR (FLAG-TOR) is 0.56 nM; on PI3K [1] (PI3 Kinase α) it was 1980 nM; on PI3K [2] (PI3 Kinase γ) it was over 10000 nM; in the assay with prostate line LNCap it was 1010 nM; with breast line MDA468 it was 1200 nM.
The matching figures for `COC(=O)Nc1ccc(-c2nc(N3CC4CCC(C3)O4)c3cnn(CC(F)(F)F)c3n2)cc1` [Example 2, methyl {4-[4-(8-oxa-3-azabicyclo[3.2.1]oct-3-yl)-1-(2,2,2-trifluoroethyl)-1H-pyrazolo[3,4-d]pyrimidin-6-yl]phenyl}carbamate]: 8 nM, over 10000 nM, over 10000 nM, 650 nM and 680 nM.
The matching figures for `CN(C)CCn1ncc2c(N3CC4CCC(C3)O4)nc(-c3ccc(NC(=O)Nc4ccc(CCO)cc4)cc3)nc21` [Example 155, 1-(4-{1-[2-(dimethylamino)ethyl]-4-(8-oxa-3-azabicyclo[3.2.1]oct-3-yl)-1H-pyrazolo[3,4-d]pyrimidin-6-yl}phenyl)-3-[4-(2-hydroxyethyl)phenyl]urea]: 1.75 nM, 82 nM, 1170 nM, 1 nM and 110 nM.
For `O=C(Nc1ccc(-c2nc(N3C[C@H]4C[C@@H]3CO4)c3cnn(CC(F)(F)F)c3n2)cc1)OCCO` [Example 343, 2-hydroxyethyl (4-{4-[(1R,4R)-2-oxa-5-azabicyclo[2.2.1]hept-5-yl]-1-(2,2,2-trifluoroethyl)-1H-pyrazolo[3,4-d]pyrimidin-6-yl}phenyl)carbamate], the IC50 against Human mTOR (FLAG-TOR) (setting [3]) is 81 nM; at PI3K [1] (setting [4]) it was 5170 nM; at PI3K [2] (setting [5]), over 10000 nM; with prostate line LNCap, 1200 nM; in the assay on breast line MDA468 it was 1500 nM.
Regarding `O=C(Nc1ccc(-c2nc(N3CC4CCC(C3)O4)c3cnn(CC(F)(F)F)c3n2)cc1)Nc1ccc(N2CCOCC2)nc1` [Example 252, 1-(6-morpholin-4-ylpyridin-3-yl)-3-{4-[4-(8-oxa-3-azabicyclo[3.2.1]oct-3-yl)-1-(2,2,2-trifluoroethyl)-1H-pyrazolo[3,4-d]pyrimidin-6-yl]phenyl}urea], the IC50 was 0.465 nM on Human mTOR (FLAG-TOR); 9500 nM at PI3K [1] (PI3 Kinase α); over 10000 nM on PI3K [2] (PI3 Kinase γ); 1 nM in the assay on prostate line LNCap; 8 nM with breast line MDA468.
The matching figures for `CCNC(=O)Nc1ccc(-c2nc(N3CC4CCC(C3)O4)c3cnn(C)c3n2)cc1` [Example 51, 1-ethyl-3-{4-[1-methyl-4-(8-oxa-3-azabicyclo[3.2.1]oct-3-yl)-1H-pyrazolo[3,4-d]pyrimidin-6-yl]phenyl}urea]: 1.6 nM, 799 nM, 7910 nM, 46 nM and 390 nM.
For `O=C(NCCF)Nc1ccc(-c2nc(N3CC4CCC(C3)O4)c3cnn(C4CCN(Cc5cccnc5)CC4)c3n2)cc1` [Example 16, 1-(2-fluoroethyl)-3-(4-{4-(8-oxa-3-azabicyclo[3.2.1]oct-3-yl)-1-[1-(pyridin-3-ylmethyl)piperidin-4-yl]-1H-pyrazolo[3,4-d]pyrimidin-6-yl}phenyl)urea], in that order: 0.5 nM, 2630 nM, over 10000 nM, 6 nM and 80 nM.
For `CCNC(=O)Nc1ccc(-c2nc(N3CC4CCC(C3)O4)c3cnn(C4CCC(N5CCN(C)CC5)CC4)c3n2)cc1` (stereo not shown) [Example 370, 1-ethyl-3-(4-{1-[4-(4-methylpiperazin-1-yl)cyclohexyl]-4-(8-oxa-3-azabicyclo[3.2.1]oct-3-yl)-1H-pyrazolo[3,4-d]pyrimidin-6-yl}phenyl)urea], the IC50 against Human mTOR (FLAG-TOR) (setting [3]) was 0.985 nM; on PI3K [1] (setting [4]), 2150 nM; on PI3K [2] (setting [5]), 6510 nM; in the assay with prostate line LNCap, 130 nM; in the assay with breast line MDA468, 400 nM.
As to `Cn1ncc2c(N3CC4CCC(C3)O4)nc(-c3ccc(NC(=O)Nc4ccccc4)cc3)nc21` [Example 55, 1-{4-[1-methyl-4-(8-oxa-3-azabicyclo[3.2.1]oct-3-yl)-1H-pyrazolo[3,4-d]pyrimidin-6-yl]phenyl}-3-phenylurea], the IC50 is 0.66 nM on Human mTOR (FLAG-TOR); 74 nM on PI3K [1] (PI3 Kinase α); 648 nM on PI3K [2] (PI3 Kinase γ); 0.8 nM in the assay with prostate line LNCap; 32 nM in the assay on breast line MDA468.
